Read-outs that look alike come from different tables or passages of the source. Square brackets hold non-standard residues; d marks the D form. Peptide text beside a SMILES is read from it. * marks the point of attachment. Dolaproine = CO[C@@H]([C@@H]1CCCN1)[C@@H](C)C(=O)O; Dil = CC[C@H](C)[C@H](NC)[C@@H](CC(=O)O)OC; X1 = C[C@@H](N*)[C@@H](O)c1ccccc1; NMeV = CN[C@H](C(=O)O)C(C)C
Assays:
[1] = dissolution / appearance in PBS
Description: Paclitaxel and the prepared paclitaxel adiposomes were dissolved in PBS, respectively.

[2] = cited from earlier work

Compound	solubility / state in PBS ([1]; in PBS)	logP [2]	solubility / state in PBS [1]
CC[C@H](C)[C@@H]([C@@H](CC(=O)N1CCC[C@H]1[C@H](OC)[C@@H](C)C(=O)N[C@H](C)[C@@H](O)c1ccccc1)OC)N(C)C(=O)[C@@H](NC(=O)[C@@H](NC)C(C)C)C(C)C [Monomethyl auristatin E] (H-[NMeV]V[Dil][Dolaproine]-X1)	very low solubility in PBS	3.4	
CC(=O)O[C@H]1C(=O)[C@@]2(C)[C@H]([C@H](OC(=O)c3ccccc3)[C@]3(O)C[C@H](OC(=O)[C@H](O)[C@@H](NC(=O)c4ccccc4)c4ccccc4)C(C)=C1C3(C)C)[C@]1(OC(C)=O)CO[C@@H]1C[C@@H]2O [Paclitaxel]	very low solubility in PBS		
C=CCc1ccc(O)c(-c2ccc(O)c(CC=C)c2)c1 [Honokiol]			very low solubility in PBS
CC[C@@]1(O)C(=O)OCc2c1cc1n(c2=O)Cc2cc3ccccc3nc2-1 [Camptothecin]	very low solubility in PBS	1.9	
